Literature values in US7320786B2, “Photodynamic therapy treatment for eye disease” (Light Sciences Oncology, Inc., priority 2000, dated 2008).

Conditions: systemically administered photosensitizer, clinical use

| Compound | duration of skin photosensitivity |
| --- | --- |
| CCOC(=O)C1=Cc2c3nc(cc4nc(cc5[n-]c(cc6[n-]c2c(C)c6CC)c(C)c5CC)C(C)=C4CC)[C@@H](C)[C@]13CC.[Cl-].[Cl-].[Sn] (racemic) [Purlytin] | several |
| Oc1cccc(-c2c3nc(c(-c4cccc(O)c4)c4ccc([nH]4)c(-c4cccc(O)c4)c4nc(c(-c5cccc(O)c5)c5ccc2[nH]5)CC4)C=C3)c1 [Foscan] | several |
| sodium porfimer [Photophrin] | up to 6 weeks |
